Source: US4684665A, “Sebosuppressive benzoic acid ester derivatives and cosmetic preparations containing them” (Henkel Kommanditgesellschaft auf Aktien, priority 1985, dated 1987)

Tested on: accumulation of sebum
Experiment: Anti-seborrheic activity on the shaved back of rats (browning, second evaluation method), % sebum reduction
Format: in vivo
Details: topical, once daily on 9 of 14 days, male Wistar rats, treated side vs untreated control group; for % Sebum reduction at the indicated concentration of active substance: 0.02%: 0.02 wt. % in alcohol; for % Sebum reduction at the indicated concentration of active substance: 0.05%: 0.05 wt. % in alcohol; for % Sebum reduction at the indicated concentration of active substance: 0.1%: 0.1 wt. % in alcohol
Description: Male Wistar rats having a body weight ranging from 220 to 230 g at the beginning of the tests were used as the test animals. The accumulation of sebum in the test animals was examined by visually observing the degree of browning on the shaved back of the rats. Browning is caused by the accumulation of the brown skin surface lipid secreted by the rats. This test is based on the observation that young female rats, as well as male rats washed with a surfactant solution or with a lipid solvent or male rats systematically treated with estrogens show only a normal light, pink-colored skin after shaving, while at the same time, only comparatively very small quantities of lipids can be extracted from the shaved hairs.
In order to assess the anti-seborrheic effectiveness of the alkoxy and alkylbenzyloxy benzoic acid esters of the present invention, alcoholic solutions of test substances (B), (E), (F), (H) and (I) were each brushed onto one side of the back of 6 rats. The benzoic acid ester derivatives tested were applied in concentrations ranging from 0.02 to 0.1 wt. % in the alcohol.
The test period consisted of 14 days. The test substances were applied, once daily on 9 of the 14 days. A second group of 6 rats which were not treated was used as an additional control. At the end of the test period, the backs and sides of the animals were shaved and visually inspected. The examination was done independently by an evaluation panel composed of 6 people using double blind techniques.
A second criterion of evaluation is the intensity of the brown coloration in the shaved area. The following scale is used for this analysis:
According to this second method of evaluation, differences in the total points between the untreated control animals and the treated and untreated sides (ΔP) of the test animals respectively are calculated. Significant differences between the total point values assigned to the control animals and the values assigned to the treated side of the test animals again indicate the antiseborrheic effectiveness of a substance.
The results are presented in terms of sebum reduction percentage. The sebum reduction percentage is calculated from the point differences by determining the quotient of the difference in total points between the control group and the treated side of the test animals (ΔP) and the total number of points for the control group (Pk) and then expressing the value obtained in percent. [formula]

Compound | % Sebum reduction at the indicated concentration of active substance: 0.02% [%] | % Sebum reduction at the indicated concentration of active substance: 0.05% [%] | % Sebum reduction at the indicated concentration of active substance: 0.1% [%]
4-isotridecyloxy-benzoic acid methylester | 83 | 83 | –
CCCCCCCCCCCCOc1ccc(C(=O)OC)cc1 [4-dodecyloxy benzoic acid methyl ester, reference compound] | – | 0 | 18
CCCCCCCCCCCCOc1ccc(C(=O)OCCCO)cc1 [4-dodecyloxy benzoic acid-3-hydroxypropyl ester, reference compound] | – | 18 | 33
COC(=O)c1ccc(OCCC(C)CC(C)(C)C)cc1 (stereo not drawn) [Compound B, 4-(3,5,5-trimethylhexyloxy)-benzoic acid methylester] | – | 36 | 76
COC(=O)c1ccc(OCc2ccc(C(C)(C)C)cc2)cc1 [Compound E, 4-(4-tert-butylbenzyloxy)-benzoic acid methylester] | 10 | 77 | –
CCCCCCCCCCCCOCCOc1ccc(C(=O)OC)cc1 [F, 4-(2-dodecyloxyethoxy)-benzoic acid methylester] | – | 63 | –
CCCCCCCCCCCCOCCOc1ccc(C(=O)OCCCO)cc1 [H, 4-(2-dodecyloxy-ethoxy)-benzoic acid-3-hydroxypropyl ester] | – | 71 | –
